Assay: Stability tests of the crystal forms (high temperature, high humidity, light)
Type: physicochemical
Details: general statement; tests at 60° C., 40° C./75% humidity, 5000 Lx described but data not given
Experimental: The crystal forms prepared in Examples 1-3 were tested in the accelerated test under high temperature conditions for stability in accordance with Guidelines for the Stability Test of Pharmaceutical Ingredients and Pharmaceutical Preparations (Chinese Pharmacopoeia 2010 Appendix XIXC).
The crystal forms C, D and E prepared in Examples 1-3 were placed in an open-clean container at 60° C., respectively. The samples were taken for test on day 10, day 20 and day 30, respectively. The results were compared with the initial test result on day 0.
The crystal forms prepared in Examples 1-3 were tested in the accelerated test under high humidity conditions for stability in accordance with Guidelines for the Stability Test of Pharmaceutical Ingredients and Pharmaceutical Preparations (Chinese Pharmacopoeia 2010 Appendix XIXC).
The crystal forms C, D and E prepared in Examples 1-3 were subjected to an accelerated test in a constant temperature and humidity vessel under the conditions of 40° C./75% humidity (open). The samples were taken for test on day 30, day 60 and day 90, respectively. The results were compared with the initial test result on day 0. […]

CCCCOc1nc(N)c2[nH]cc(Cc3ccc(CN4CCCC4)cc3)c2n1.O=C(O)/C=C\C(=O)O [crystal form C, Maleate of 2-butoxy-7-(4-(pyrrolidin-1-ylmethyl)benzyl)-5H-pyrrolo[3,2-d]pyrimidin-4-amine]
stability of the crystal form: good stability
